Results reported in the NIST ThermoML archive (doi:10.1016/j.jct.2005.03.004).

Conditions: Liquid

CO [methanol]
Conditions | vapor or sublimation pressure [kPa]
298.15 K | 16.97
303.15 K | 21.88
308.15 K | 27.96
313.15 K | 35.44
318.15 K | 44.54
323.15 K | 55.58
